Patent US5741664A, “Subtilisin variants capable of cleaving substrates containing dibasic residues” (priority 1995, dated 1998)
Residues, ends and D or L forms follow the SMILES beside them.

Legend:
[1] = target: T1, KEX2 (yeast pro-hormone processing protease) (Saccharomyces cerevisiae, UniProt P13134); conditions: KEX2 cleaving Boc-RVRR-MCA; Brenner and Fuller 1992; cited from earlier work
T1 sequence (P13134 114-613 limits assumed): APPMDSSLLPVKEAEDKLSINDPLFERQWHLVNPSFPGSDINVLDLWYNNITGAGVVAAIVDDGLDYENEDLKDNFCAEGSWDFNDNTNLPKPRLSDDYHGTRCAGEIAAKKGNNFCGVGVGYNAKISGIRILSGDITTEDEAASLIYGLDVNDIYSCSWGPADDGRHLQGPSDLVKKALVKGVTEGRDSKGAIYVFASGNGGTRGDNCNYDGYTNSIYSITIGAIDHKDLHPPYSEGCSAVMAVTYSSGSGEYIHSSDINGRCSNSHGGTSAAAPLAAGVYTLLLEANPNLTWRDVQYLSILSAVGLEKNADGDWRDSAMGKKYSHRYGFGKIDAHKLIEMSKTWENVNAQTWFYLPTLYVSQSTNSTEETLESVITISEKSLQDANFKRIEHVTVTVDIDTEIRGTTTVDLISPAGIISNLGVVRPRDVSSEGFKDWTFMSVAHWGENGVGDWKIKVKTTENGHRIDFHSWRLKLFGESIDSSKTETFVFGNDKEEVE

[2] = target: T2, Bacillus amyloliquefaciens subtilisin BPN' variant G166D (Bacillus amyloliquefaciens, UniProt P00782, G273D); assay: hydrolysis of p-nitroanilide tetrapeptide substrates, initial rates; type: biochemical; conditions: suc-AAPX-pna series; 20 mM Tris-Cl pH 8.2, 4% DMSO, 25 C
T2 construct: made in house; host or cells: Bacillus subtilis BG2036 (secreted, purified from culture supernatant)
Text: To probe the effects of the G166E and G166D on specificity at the P1 position we used substrates having the form suc-AAPX-pna (SEQ ID NO: 69) where X was either Lys (SEQ ID NO: 58), Arg (SEQ ID NO: 59), Phe (SEQ ID NO: 56), Met (SEQ ID NO: 60) or Gln (SEQ ID NO: 61). Whereas the wild-type enzyme preferred Phe>Met>Lys>Arg>Gln, the G166E preferred Lys~Phe>Arg~Met>Gln, and G166D preferred Lys>Phe~Arg~Met>Gln. Thus, both the acidic substitutions at position 166 caused a shift in preference for basic residues as previously reported (Wells, J. A., Powers, D. B., Bott, R. R., Graycar, T. P. and Estell, D. A. (1987a), Proc. Natl. Acad. Sci. USA 84:1219-1223).
(§1) Subtilisins were assayed by measuring the initial rates of hydrolysis of p-nitroanilide tetrapeptide substrates in 0.4 mL 20 mM Tris-Cl pH 8.2, 4 % (v/v) dimethyl sulfoxide at (25±0.2)° C. as described previously (Estell, D. A., Graycar, T. P., Miller, J. V., Powers, D. B., Burnier, J. P., Ng, P. G. and Wells, J. A. [1986] Science 233:659-663). Enzyme concentrations [E]0 were determined spectrophotometrically using E280 nm 0.1%=1.17 (Matsubara, H.; Kasper, C B.; Brown, D. M.; and Smith, E. L. (1965) J. Biol. Chem.,240:1125-1130.), and were typically 5-50 nM in reactions. Initial rates were determined for nine to twelve different substrate concentrations over the range of 0.001-2.0 mM. […]

[3] = target: T3, Bacillus amyloliquefaciens subtilisin BPN' variant N62D/G166D (mature enzyme SEQ ID NO: 72) (Bacillus amyloliquefaciens, UniProt P00782, G273D/N169D); assay: as above; type: biochemical; conditions: suc-AAXX-pna series; 20 mM Tris-Cl pH 8.2, 4% DMSO, 25 C
T3 construct: made in house; host or cells: Bacillus subtilis BG2036 (secreted, purified from culture supernatant)
Procedure: (§2) Despite the less than additive effects seen for the two charged substitutions in the S2 site, we decided to combine the best S2 site variant (N62D) with either of the acidic substitutions in the S1 site. The two double mutants, N62D/G166E and N62D/G166D, were analyzed with substrates having the form, suc-AAXX-pna (SEQ ID NO: 71) where XX was either KK (SEQ ID NO: 66), KR (SEQ ID NO: 67), KF (SEQ ID NO: 62), PK (SEQ ID NO: 58), PF (SEQ ID NO: 56) or AF (SEQ ID NO: 63)(FIG. 4). The wild-type preference was AF>PF~KF>KK~PK>KR, whereas the double mutants had the preference KK>KR>KF>PK~AF>PF. […]
as §1

[4] = target: T4, Bacillus amyloliquefaciens subtilisin BPN' variant N62D/G166E (Bacillus amyloliquefaciens, UniProt P00782, G273E/N169D); assay: as above; type: biochemical; conditions: suc-AAXX-pna series; 20 mM Tris-Cl pH 8.2, 4% DMSO, 25 C
T4 construct: made in house; host or cells: Bacillus subtilis BG2036 (secreted, purified from culture supernatant)
Procedure: as §2, §1

[5] = target: T5, subtilisin (subtilisin BPN' from Bacillus amyloliquefaciens, wild type) (Bacillus amyloliquefaciens, UniProt P00782); conditions: subtilisin cleaving suc-AAPF-pna; Estell et al. 1986; cited from earlier work
T5 sequence (P00782 108-382): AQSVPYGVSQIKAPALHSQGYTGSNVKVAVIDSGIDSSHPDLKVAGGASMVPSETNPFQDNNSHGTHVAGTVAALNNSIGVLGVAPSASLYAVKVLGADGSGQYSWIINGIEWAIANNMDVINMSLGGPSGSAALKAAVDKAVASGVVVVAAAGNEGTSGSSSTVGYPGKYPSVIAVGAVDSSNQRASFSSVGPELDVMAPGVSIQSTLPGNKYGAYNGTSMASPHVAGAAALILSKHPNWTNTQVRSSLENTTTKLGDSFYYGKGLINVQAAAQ

T2 sequence (P00782 108-382 G273D): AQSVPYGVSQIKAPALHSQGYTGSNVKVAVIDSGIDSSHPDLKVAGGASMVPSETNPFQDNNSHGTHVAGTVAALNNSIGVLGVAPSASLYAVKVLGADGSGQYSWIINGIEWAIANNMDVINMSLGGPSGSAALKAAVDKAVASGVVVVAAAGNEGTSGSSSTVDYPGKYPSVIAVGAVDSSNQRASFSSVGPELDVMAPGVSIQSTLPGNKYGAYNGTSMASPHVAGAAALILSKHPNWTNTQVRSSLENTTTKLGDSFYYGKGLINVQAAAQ
T3 sequence (P00782 108-382 N169D/G273D): as the sequence (P00782 108-382 G273D) above, with N62D counted along it
T4 sequence (P00782 108-382 N169D/G273E): as the sequence (P00782 108-382 G273D) above, with N62D, D166E counted along it

Cc1cc(=O)oc2cc(NC(=O)[C@H](CCCNC(=N)N)NC(=O)[C@H](CCCNC(=N)N)NC(=O)[C@@H](NC(=O)[C@H](CCCNC(=N)N)NC(=O)OC(C)(C)C)C(C)C)ccc12 [Boc-RVRR-MCA, N-t-butoxy carbonyl-arginine-valine-arginine-arginine-7-amido-4-methyl coumarin] (HELM PEPTIDE1{[CC(C)(C)OC(=O)[*:2]].R.V.R.R.[Cc1cc(=O)oc2cc(N[*:1])ccc12]}$$$$V2.0)
kcat/Km [1]: 1e+06 M⁻¹ s⁻¹

C[C@H](NC(=O)CCC(=O)O)C(=O)N[C@@H](C)C(=O)N1CCC[C@H]1C(=O)N[C@@H](CCCCN)C(=O)Nc1ccc([N+](=O)[O-])cc1 [Lys P1 substrate] (HELM PEPTIDE1{[O=C(O)CCC(=O)[*:2]].A.A.P.K.[O=[N+]([O-])c1ccc(N[*:1])cc1]}$$$$V2.0)
ratio of catalytic efficiencies (kcat/Km), Lys P1 substrate versus Phe P1 substrate [2]: about 3 times faster

C[C@H](NC(=O)CCC(=O)O)C(=O)N[C@@H](C)C(=O)N[C@@H](CCCCN)C(=O)N[C@@H](CCCCN)C(=O)Nc1ccc([N+](=O)[O-])cc1 [Lys-Lys substrate] (HELM PEPTIDE1{[O=C(O)CCC(=O)[*:2]].A.A.K.K.[O=[N+]([O-])c1ccc(N[*:1])cc1]}$$$$V2.0)
ratio of catalytic efficiencies (kcat/Km), Lys-Lys substrate versus Lys-Phe substrate [3]: 18 times faster
ratio of catalytic efficiencies (kcat/Km), Lys-Lys substrate versus Lys-Phe substrate [4]: about 8 times faster

C[C@H](NC(=O)CCC(=O)O)C(=O)N[C@@H](C)C(=O)N1CCC[C@H]1C(=O)N[C@@H](Cc1ccccc1)C(=O)Nc1ccc([N+](=O)[O-])cc1 [suc-AAPF-pna, N-succinyl-alanine-alanine-proline-phenylalanyl-p-nitroanalide] (HELM PEPTIDE1{[O=C(O)CCC(=O)[*:2]].A.A.P.F.[O=[N+]([O-])c1ccc(N[*:1])cc1]}$$$$V2.0)
kcat/Km [5]: 300000 M⁻¹ s⁻¹
